Target: T1, BCAT2 (Homo sapiens, UniProt O15382)
T1 sequence (O15382 28-392): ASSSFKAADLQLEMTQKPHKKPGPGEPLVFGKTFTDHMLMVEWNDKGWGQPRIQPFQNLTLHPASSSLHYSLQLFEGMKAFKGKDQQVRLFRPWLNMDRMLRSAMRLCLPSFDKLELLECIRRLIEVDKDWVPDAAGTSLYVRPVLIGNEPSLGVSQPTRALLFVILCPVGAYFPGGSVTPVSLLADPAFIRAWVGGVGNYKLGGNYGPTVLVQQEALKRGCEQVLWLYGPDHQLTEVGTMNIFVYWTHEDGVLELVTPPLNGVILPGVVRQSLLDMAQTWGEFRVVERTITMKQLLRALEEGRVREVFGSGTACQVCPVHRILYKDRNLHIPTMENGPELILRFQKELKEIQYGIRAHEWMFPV
Experiment: BCAT2 in vitro enzyme inhibition assay (hBCAT2, glutamate dehydrogenase/diaphorase/resazurin coupled fluorescence read)
Type: biochemical
Conditions: hBCAT2, 1 h preincubation at 25° C., one hour reaction; average where tested multiple times
Method in brief: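 hBCAT2 (0.33 μg/mL in mix) preincubated 1 h at 25 °C with compound (top 100 μM, 3-fold, 10 points) in Tris pH 8.0/NaCl/BSA; substrate mix added (L-leucine, α-ketoglutarate, GDH, NAD, diaphorase, resazurin), quenched with SDS after 1 h, fluorescence Ex 540/Em 590; duplicates, repeat tests averaged.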

SMILES | IC50
O=C(N[C@H]1C[C@@H](n2c(-c3ccccc3OCCO)nc3ccc(-c4nc[nH]n4)cc32)CC(F)(F)C1)c1cc(F)ccn1 [Example 232, N-((1S,5R)-3,3-difluoro-5-(2-(2-(2-hydroxyethoxy)phenyl)-6-(1H-1,2,4-triazol-3-yl)-1H-benzo[d]imidazol-1-yl)cyclohexyl)-4-fluoropicolinamide] | 0.1 to 0.5 µM
O=C(N[C@H]1CCC[C@@H](n2c(-c3ncccc3OC(F)F)nc3cnc(-c4ncn[nH]4)cc32)C1)c1cc(O)ccc1Cl [compound 97] | < 0.1 µM
CC(C)Cc1nc2cnc(-c3nc[nH]n3)cc2n1[C@@H]1CCC[C@H](NC(=O)c2cc(F)ccc2F)[C@H]1O [Example 121, 2,5-difluoro-N-((1S,2R,3R)-2-hydroxy-3-(2-isobutyl-6-(1H-1,2,4-triazol-3-yl)-1H-imidazo[4,5-c]pyridin-1-yl)cyclohexyl)benzamide] | 0.1 to 0.5 µM
Cc1coc(-c2cc3c(cn2)nc(-c2ccccc2F)n3[C@@H]2CCC[C@H](NC(=O)c3cc(F)ccc3F)[C@H]2O)n1 [Example 125, 2,5-difluoro-N-((1S,2R,3R)-3-(2-(2-fluorophenyl)-6-(4-methyloxazol-2-yl)-1H-imidazo[4,5-c]pyridin-1-yl)-2-hydroxycyclohexyl)benzamide] | < 0.1 µM
CC(C)COc1ccc(Cl)cc1C(=O)N[C@H]1CCC[C@@H](n2c(-c3ncccc3F)nc3cnc(-c4nc[nH]n4)cc32)C1 [Example 48, 5-chloro-N-((1S,3R)-3-(2-(3-fluoropyridin-2-yl)-6-(1H-1,2,4-triazol-3-yl)-1H-imidazo[4,5-c]pyridin-1-yl)cyclohexyl)-2-isobutoxybenzamide] | < 0.1 µM
COc1ccc(Cl)cc1C(=O)N[C@H]1C[C@@H](n2c(-c3ncccc3F)nc3cnc(-c4nc[nH]n4)cc32)CN(C)C1 [Example 138, 5-chloro-N-((3S,5R)-5-(2-(3-fluoropyridin-2-yl)-6-(1H-1,2,4-triazol-3-yl)-1H-imidazo[4,5-c]pyridin-1-yl)-1-methylpiperidin-3-yl)-2-methoxybenzamide] | > 1 µM
CS(=O)(=O)c1ccc(Cl)cc1C(=O)N[C@H]1CCC[C@@H](n2c(-c3ccccc3F)nc3cnc(-c4nc[nH]n4)cc32)C1 [Example 12, 5-chloro-N-((1S,3R)-3-(2-(2-fluorophenyl)-6-(1H-1,2,4-triazol-3-yl)-1H-imidazo[4,5-c]pyridin-1-yl)cyclohexyl)-2-(methylsulfonyl)benzamide] | > 1 µM
CC(Oc1ccccc1-c1nc2cnc(-c3nc[nH]n3)cc2n1[C@@H]1CCC[C@H](NC(=O)c2cc(Cl)ccn2)C1)C(F)(F)F (stereo partly drawn) [Example 91, N-((1S,3R)-3-(6-(1H-1,2,4-triazol-3-yl)-2-(2-((1,1,1-trifluoropropan-2-yl)oxy)phenyl)-1H-imidazo[4,5-c]pyridin-1-yl)cyclohexyl)-4-chloropicolinamide] | > 1 µM
COc1ccc(Cl)cc1C(=O)N[C@H]1C[C@H](O)C[C@@H](n2c(CC(C)C)nc3cnc(-c4ncccn4)cc32)C1 [Example 111, 5-chloro-N-((1R,3S,5S)-3-hydroxy-5-(2-isobutyl-6-(pyrimidin-2-yl)-1H-imidazo[4,5-c]pyridin-1-yl)cyclohexyl)-2-methoxybenzamide] | < 0.1 µM
CN1CC(NC(=O)c2cc(F)ccc2F)CC(n2c(-c3ncccc3F)nc3cnc(-c4nc[nH]n4)cc32)C1 (stereo not drawn) [Example 146, 2,5-difluoro-N-(5-(2-(3-fluoropyridin-2-yl)-6-(1H-1,2,4-triazol-3-yl)-1H-imidazo[4,5-c]pyridin-1-yl)-1-methylpiperidin-3-yl)benzamide] | 0.1 to 0.5 µM
O=C(N[C@H]1CCC[C@@H](n2c(CCC3CCOC3)nc3cnc(-c4nc[nH]n4)cc32)C1)c1cc(Cl)ccn1 (stereo partly drawn) [Example 94, 4-chloro-N-((1S,3R)-3-(2-(2-(tetrahydrofuran-3-yl)ethyl)-6-(1H-1,2,4-triazol-3-yl)-1H-imidazo[4,5-c]pyridin-1-yl)cyclohexyl)picolinamide] | > 1 µM
CN1C[C@H](N2Cc3ccc(F)cc3C2=O)C[C@H](n2c(-c3ccccc3OCCO)nc3cnc(-c4nc[nH]n4)cc32)C1 [Example 197, 6-fluoro-2-((3R,5S)-5-(2-(2-(2-hydroxyethoxy)phenyl)-6-(1H-1,2,4-triazol-3-yl)-1H-imidazo[4,5-c]pyridin-1-yl)-1-methylpiperidin-3-yl)isoindolin-1-one] | < 0.1 µM
CCN1C[C@@H](NC(=O)c2cc(F)ccn2)C[C@@H](n2c(-c3ccccc3F)nc3cnc(-c4nc[nH]n4)cc32)C1 [Example 149, N-((3S,5R)-1-ethyl-5-(2-(2-fluorophenyl)-6-(1H-1,2,4-triazol-3-yl)-1H-imidazo[4,5-c]pyridin-1-yl)piperidin-3-yl)-4-fluoropicolinamide] | 0.5 to 1 µM
CC(C)(Cc1nc2cnc(-c3nc[nH]n3)cc2n1[C@@H]1CCC[C@H](NC(=O)c2cc(Cl)ccn2)C1)C(N)=O [Example 44, N-((1S,3R)-3-(2-(3-amino-2,2-dimethyl-3-oxopropyl)-6-(1H-1,2,4-triazol-3-yl)-1H-imidazo[4,5-c]pyridin-1-yl)cyclohexyl)-4-chloropicolinamide] | > 1 µM
N[C@H]1[C@H](n2c(-c3ccccc3F)nc3ccc(-c4nc[nH]n4)cc32)CCC[C@@H]1N1Cc2ccc(Cl)cc2C1=O [Example 242, 2-((1S,2S,3R)-2-amino-3-(2-(2-fluorophenyl)-6-(1H-1,2,4-triazol-3-yl)-1H-benzo[d]imidazol-1-yl)cyclohexyl)-6-chloroisoindolin-1-one] | < 0.1 µM
CN1C[C@@H](NC(=O)c2cc(Cl)ccn2)C[C@@H](n2c(-c3ccccc3OCCO)nc3cnc(-n4nccn4)cc32)C1 [Example 156, 4-chloro-N-((3S,5R)-5-(2-(2-(2-hydroxyethoxy)phenyl)-6-(2H-1,2,3-triazol-2-yl)-1H-imidazo[4,5-c]pyridin-1-yl)-1-methylpiperidin-3-yl)picolinamide] | > 1 µM
CN1C[C@@H](NC(=O)c2cc(F)ccc2F)C[C@@H](n2c(-c3ccccc3OCCO)nc3cnc(-n4nccn4)cc32)C1 [Example 154, 2,5-difluoro-N-((3S,5R)-5-(2-(2-(2-hydroxyethoxy)phenyl)-6-(2H-1,2,3-triazol-2-yl)-1H-imidazo[4,5-c]pyridin-1-yl)-1-methylpiperidin-3-yl)benzamide] | > 1 µM
COc1ccc(Cl)cc1C(=O)N[C@@H]1C[C@@H](O)C[C@H](n2c(CC(C)C)nc3cnc(-c4ncccn4)cc32)C1 [Example 112, 5-chloro-N-((1S,3R,5R)-3-hydroxy-5-(2-isobutyl-6-(pyrimidin-2-yl)-1H-imidazo[4,5-c]pyridin-1-yl)cyclohexyl)-2-methoxybenzamide] | > 1 µM
O=C(N[C@H]1CCC[C@@H](n2c(-c3ncccc3OC(F)F)nc3cnc(-c4nc[nH]n4)cc32)C1)c1cc(F)ccc1F [compound 61] | < 0.1 µM
O=C(N[C@H]1CCC[C@@H](n2c(-c3ccccc3OC(F)F)nc3cnc(-c4nc[nH]n4)cc32)C1)c1cc(Cl)ccn1 [compound 52] | < 0.1 µM
CC(C)(C#N)Cc1nc2cnc(-c3nc[nH]n3)cc2n1[C@@H]1CCC[C@H](NC(=O)c2cc(Cl)ccn2)C1 [Example 43, 4-chloro-N-((1S,3R)-3-(2-(2-cyano-2-methylpropyl)-6-(1H-1,2,4-triazol-3-yl)-1H-imidazo[4,5-c]pyridin-1-yl)cyclohexyl)picolinamide] | 0.5 to 1 µM
CN1C[C@@H](NC(=O)c2cc(Cl)ccn2)C[C@@H](n2c(-c3ncccc3F)nc3cnc(-c4nc[nH]n4)cc32)C1 [Example 131, 4-chloro-N-((3S,5R)-5-(2-(3-fluoropyridin-2-yl)-6-(1H-1,2,4-triazol-3-yl)-1H-imidazo[4,5-c]pyridin-1-yl)-1-methylpiperidin-3-yl)picolinamide] | > 1 µM
N#Cc1ccccc1-c1nc2cnc(-c3nc[nH]n3)cc2n1[C@@H]1CCC[C@H](N2COc3ccc(Cl)cc3C2=O)C1 [Example 203, 2-(1-((1R,3S)-3-(6-chloro-4-oxo-2H-benzo[e][1,3]oxazin-3(4H)-yl)cyclohexyl)-6-(1H-1,2,4-triazol-3-yl)-1H-imidazo[4,5-c]pyridin-2-yl)benzonitrile] | < 0.1 µM
CN1C[C@@H](NC(=O)c2cc(F)ccn2)C[C@@H](n2c(-c3ccccc3OCCO)nc3ccc(-c4ncccn4)cc32)C1 [Example 237, 4-fluoro-N-((3S,5R)-5-(2-(2-(2-hydroxyethoxy)phenyl)-6-(pyr-imidin-2-yl)-1H-benzo[d]imid-azol-1-yl)-1-methylpiperidin-3-yl)picolinamide] | > 1 µM
CN1C[C@@H](N2Cc3ccc(F)cc3C2=O)C[C@@H](n2c(-c3ccccc3OCCO)nc3ccc(-c4ncccn4)cc32)C1 [Example 244, 6-fluoro-2-((3S,5R)-5-(2-(2-(2-hydroxyethoxy)phenyl)-6-(pyr-imidin-2-yl)-1H-benzo[d]imid-azol-1-yl)-1-methylpiperidin-3-yl)isoindolin-1-one] | 0.5 to 1 µM
O=C(NC1CCCCC(n2c(-c3ccccc3F)nc3cnc(-c4nc(C(F)(F)F)co4)cc32)C1O)c1cc(F)ccc1F (stereo not drawn) [Example 126, 2,5-difluoro-N-(3-(2-(2-fluorophenyl)-6-(4-(trifluoromethyl)oxazol-2-yl)-1H-imidazo[4,5-c]pyridin-1-yl)-2-hydroxycycloheptyl)benzamide] | < 0.1 µM
CCNCc1nc2cnc(-c3nc[nH]n3)cc2n1[C@@H]1CCC[C@H](NC(=O)c2cc(Cl)ccn2)C1 [Example 38, 4-chloro-N-((1S,3R)-3-(2-((ethylamino)methyl)-6-(1H-1,2,4-triazol-3-yl)-1H-imidazo[4,5-c]pyridin-1-yl)cyclohexyl)picolinamide] | > 1 µM

Reference: patent US20260334439A1, “BCAT2 INHIBITORS” (Agios Pharmaceuticals, Inc., priority 2023, published 2026)
